Assay [1] addresses T1, cytoplasmic domain of the human CSF-1R (Homo sapiens, UniProt P07333).
T1 construct: Recombinant protein corresponding to the cytoplasmic domain of the human CSF-1R; purchased Invitrogen Corporation, Carlsbad, Calif; PV3249
T1 sequence (P07333 539-972 limits assumed): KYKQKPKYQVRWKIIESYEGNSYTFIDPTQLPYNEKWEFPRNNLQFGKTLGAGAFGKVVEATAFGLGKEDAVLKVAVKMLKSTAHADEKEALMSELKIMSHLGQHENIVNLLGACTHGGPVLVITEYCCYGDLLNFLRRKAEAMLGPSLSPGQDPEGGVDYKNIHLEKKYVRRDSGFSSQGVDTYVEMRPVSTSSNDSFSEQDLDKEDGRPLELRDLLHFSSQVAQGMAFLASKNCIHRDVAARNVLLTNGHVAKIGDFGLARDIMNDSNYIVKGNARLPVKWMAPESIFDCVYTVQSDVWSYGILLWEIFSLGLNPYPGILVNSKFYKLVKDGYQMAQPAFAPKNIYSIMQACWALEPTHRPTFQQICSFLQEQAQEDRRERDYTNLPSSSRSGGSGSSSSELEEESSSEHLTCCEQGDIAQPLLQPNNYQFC
In words: In vitro kinase assay for colony stimulating factor-1 receptor (AlphaScreen). The settings on record: tested at about 1 μM, read-out: CSF-1R percent inhibition. In kind it is biochemical. In short, it runs like this: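 Test compounds, serially diluted threefold starting at 25 μM, were mixed with Hepes buffer (pH 7.5, Mg2+/Mn2+, DTT, BSA, Tween 80) containing 1 μM ATP. Recombinant kinase was present at 4 nM. After stopping, beads were added and plates were read the next day by AlphaScreen.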
Background: Bead proximity is the source of the signal in Alpha formats.

The target in assay [2] is T2, full-length human CSF-1R receptor (Homo sapiens, UniProt P07333).
T2 construct: transfected with the full-length human CSF-1R receptor cloned in house; expressed in transfected cells; host or cells: HEK293H (Invitrogen Cat. #11631017)
In words: In vitro inhibition of CSF-1R receptor tyrosine phosphorylation in transfected HEK293H cells stimulated with MCSF. Format: cell-based. The following applies: HEK293-H, tested at about 1 μM, read-out: pCSF1R percent inhibition. Here is the method: The lysate was then transferred to total CSF-1R antibody coated 96-well plates that had already been blocked with 3% Blocker A from Mesoscale discovery (MSD) for 2 hours and washed afterwards. Lysates were incubated overnight at 4° C. and the plates were then washed 4× with MSD Tris Wash Buffer. […] The plates were read on the Sector 6000 instrument (MSD). Raw data was imported in Abase and EC50s calculated with XL-fit data analysis software.

Another assay has as its target T3, kinase domain of cKIT (Homo sapiens, UniProt P10721).
T3 construct: The kinase domain of cKIT was assayed in 50 mM Hepes; purchased Upstate 14-559
The assay is described as follows: Inhibition of cKIT kinase signaling in an in vitro biochemical assay (alphascreen). The following applies: tested at about 1 μM, read-out: cKit percent inhibition.

Another assay addresses T4, kinase domain of PDGFRβ (Homo sapiens, UniProt P09619).
T4 construct: The kinase domain of PDGFRβ was assayed in 50 mM Hepes; purchased Invitrogen P3082
The assay is described as follows: Inhibition of PDGFRb kinase signaling in an in vitro biochemical assay (alphascreen). The settings on record: tested at about 1 μM, read-out: PDGFRβ percent inhibition.

In assay [3] the test system is MNFS60 (murine AML cells). In words: Cell viability assay in MCSF dependent MNFS60 cells (Cell Titer Glo). Format: cell-based. The settings on record: Mus musculus, tested at about 1 μM, read-out: M-NFS-60 CP percent inhibition. The method, boiled down: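 3-fold DMSO dilution series (500× stocks); MCSF 10 ng/ml final; 72 hrs, 37° C., 5% CO2; CellTiter-Glo read-out; n=3; EC50 fitted.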
A general note: ATP-based viability assays read luminescence as a measure of living cells.

Where two headings read alike, the source gives them in different places.

T2 sequence (P07333 20-972): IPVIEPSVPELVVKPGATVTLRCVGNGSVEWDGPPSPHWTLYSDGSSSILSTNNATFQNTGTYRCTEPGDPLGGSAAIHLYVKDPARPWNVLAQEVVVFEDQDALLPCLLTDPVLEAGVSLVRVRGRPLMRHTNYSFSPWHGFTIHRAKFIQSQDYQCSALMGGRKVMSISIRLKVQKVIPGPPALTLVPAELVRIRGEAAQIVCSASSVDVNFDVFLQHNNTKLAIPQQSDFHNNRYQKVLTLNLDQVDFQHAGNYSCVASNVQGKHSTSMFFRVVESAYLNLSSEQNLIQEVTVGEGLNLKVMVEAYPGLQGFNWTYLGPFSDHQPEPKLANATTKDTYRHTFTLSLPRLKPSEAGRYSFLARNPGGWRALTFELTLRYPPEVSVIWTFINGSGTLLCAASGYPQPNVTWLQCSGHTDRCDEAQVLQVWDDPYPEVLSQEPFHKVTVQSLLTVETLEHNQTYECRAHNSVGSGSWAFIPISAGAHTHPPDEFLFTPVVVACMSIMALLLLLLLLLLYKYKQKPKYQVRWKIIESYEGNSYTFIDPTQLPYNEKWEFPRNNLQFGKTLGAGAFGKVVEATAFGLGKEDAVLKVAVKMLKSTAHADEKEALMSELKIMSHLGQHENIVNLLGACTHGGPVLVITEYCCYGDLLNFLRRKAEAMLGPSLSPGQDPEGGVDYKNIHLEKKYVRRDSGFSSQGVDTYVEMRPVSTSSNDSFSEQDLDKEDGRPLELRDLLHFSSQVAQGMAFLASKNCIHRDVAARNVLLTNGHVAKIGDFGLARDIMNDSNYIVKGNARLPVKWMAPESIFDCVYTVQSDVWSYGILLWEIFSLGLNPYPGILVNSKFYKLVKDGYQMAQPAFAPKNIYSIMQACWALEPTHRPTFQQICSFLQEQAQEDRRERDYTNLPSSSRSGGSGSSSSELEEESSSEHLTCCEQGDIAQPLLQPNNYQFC
T4 sequence (P09619 600-962 limits assumed): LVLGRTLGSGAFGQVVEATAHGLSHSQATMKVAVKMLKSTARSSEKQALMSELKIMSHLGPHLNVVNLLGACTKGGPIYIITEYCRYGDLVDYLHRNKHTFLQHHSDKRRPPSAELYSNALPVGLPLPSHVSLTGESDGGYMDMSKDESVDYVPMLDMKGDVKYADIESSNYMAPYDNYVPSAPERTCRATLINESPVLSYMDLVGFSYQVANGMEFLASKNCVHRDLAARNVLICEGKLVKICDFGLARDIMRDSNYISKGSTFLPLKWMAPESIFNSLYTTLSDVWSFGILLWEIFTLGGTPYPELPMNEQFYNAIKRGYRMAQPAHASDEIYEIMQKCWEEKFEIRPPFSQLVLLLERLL
T3 sequence (P10721 589-937 limits assumed): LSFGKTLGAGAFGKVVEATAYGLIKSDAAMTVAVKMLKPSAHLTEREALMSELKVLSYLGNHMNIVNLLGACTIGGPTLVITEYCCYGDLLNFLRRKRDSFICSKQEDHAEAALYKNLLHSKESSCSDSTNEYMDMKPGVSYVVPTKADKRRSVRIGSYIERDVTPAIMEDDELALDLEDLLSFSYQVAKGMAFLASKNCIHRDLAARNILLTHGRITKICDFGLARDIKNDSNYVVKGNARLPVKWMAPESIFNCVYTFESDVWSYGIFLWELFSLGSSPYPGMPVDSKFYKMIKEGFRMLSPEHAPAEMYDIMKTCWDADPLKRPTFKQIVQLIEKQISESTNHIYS

Consider `CNC(=O)c1cc(Oc2ccc3nc(NCc4cc(OC)ccc4OC)sc3c2)ccn1` [Compound 146, 4-[2-(2,5-Dimethoxy-benzyl-amino)-benzothiazol-6-yloxy]-pyridine-2-carboxylic acid methylamide], for which the inhibition at 1 µM in assay [1] is 99%; in assay [2] (HEK293H cells) it was 86%; at kinase domain of cKIT, 5%; at kinase domain of PDGFRβ, 3%; in assay [3] (MNFS60 cells), 56%.
As to `CNC(=O)c1cc(Oc2ccc3nc(NCC4CCCCCC4)oc3c2)ccn1` [Compound 101, 4-[2-(Cycloheptylmethyl-amino)-benzooxazol-6-yloxy]-pyridine-2-carboxylic acid methylamide], the inhibition at 1 µM in assay [1] was found to be 99%; in assay [2] (HEK293H cells), 91%; on kinase domain of cKIT it was 85%; on kinase domain of PDGFRβ, 91%; in assay [3] (MNFS60 cells), 85%.
`CNC(=O)c1cc(Oc2ccc3nc(NC4CCCC(O)C4)sc3c2)ccn1` (stereo not shown) [Example 293, 4-(2-(3-hydroxycyclohexylamino)benzo[d]thiazol-6-yloxy)-N-methylpicolinamide]: the inhibition at 1 µM in assay [1] (compounds of Table 3) turned out to be 100%; in assay [2] (compounds of Table 3) it was 82%; on kinase domain of cKIT (compounds of Table 3), 22%; on kinase domain of PDGFRβ (compounds of Table 3), 0%; in assay [3] (compounds of Table 3), 67%.
As for `CNC(=O)c1cc(Oc2ccc3nc(NCc4cccc(Cl)c4Cl)sc3c2)ccn1` [Compound 134, 4-[2-(2,3-Dichloro-benzylamino)-benzothiazol-6-yloxy]-pyridine-2-carboxylic acid methylamide], the inhibition at 1 µM in assay [1] was found to be 98%; in assay [2] (HEK293H cells), 93%; at kinase domain of cKIT it was 98%; at kinase domain of PDGFRβ, 0%; in assay [3] (MNFS60 cells) it was 93%.
Turning to `CC(C)CONC(=O)c1cc(Oc2ccc3nc(N[C@@H]4CCCC[C@H]4O)sc3c2)ccn1` [Example 381, 4-(2-((1R,2R)-2-hydroxycyclohexylamino)benzo[d]thiazol-6-yloxy)-N-isobutoxypicolinamide], the inhibition at 1 µM in assay [1] turned out to be 100%; in assay [2] (HEK293H cells), 99%; on kinase domain of cKIT, 30%; at kinase domain of PDGFRβ, 20%; in assay [3] (MCSF dependent MNFS60 cells) it was 100%.
Regarding `CCOc1ccccc1CNc1nc2ccc(Oc3ccnc(C(=O)NC)c3)cc2o1` [Compound 96, 4-[2-(2-Ethoxy-benzylamino)-benzooxazol-6-yloxy]-pyridine-2-carboxylic acid methylamide], the inhibition at 1 µM is 99% in assay [1]; 89% in assay [2] (HEK293H cells); 33% on kinase domain of cKIT; 3% at kinase domain of PDGFRβ; 75% in assay [3] (MNFS60 cells).
Consider `CNC(=O)c1cc(Oc2ccc3nc(N[C@@H]4CCCC[C@H]4CO)sc3c2)ccn1` [Example 299, 4-(2-((1R,2R)-2-(hydroxymethyl)cyclohexyl-amino)benzo[d]thiazol-6-yloxy)-N-methylpicolinamide], for which the inhibition at 1 µM in assay [1] (compounds of Table 3) worked out at 100%; in assay [2] (compounds of Table 3) it was 95%; on kinase domain of cKIT (compounds of Table 3), 32%; at kinase domain of PDGFRβ (compounds of Table 3) it was 57%; in assay [3] (compounds of Table 3), 94%.
As for `O[C@H]1Cc2ccccc2[C@H]1Nc1nc2ccc(Oc3ccnc4ccccc34)cc2s1` [Example 237, (1R,2S)-1-(6-(quinolin-4-yloxy)benzo[d]thiazol-2-ylamino)-2,3-dihydro-1H-inden-2-ol], the inhibition at 1 µM came out at 100% in assay [1] (compounds of Table 3); 94% in assay [2] (compounds of Table 3); 24% on kinase domain of cKIT (compounds of Table 3); 13% at kinase domain of PDGFRβ (compounds of Table 3); 100% in assay [3] (compounds of Table 3).
For the molecule `CNC(=O)c1cc(Oc2ccc3nc(NCc4ccccc4C(F)(F)F)oc3c2)ccn1` [Compound 97, 4-[2-(2-Trifluoromethyl-benzylamino)-benzooxazol-6-yloxy]-pyridine-2-carboxylic acid methylamide], the inhibition at 1 µM in assay [1] stood at 99%; in assay [2] (HEK293H cells), 84%; at kinase domain of cKIT, 99%; at kinase domain of PDGFRβ it was 5%; in assay [3] (MNFS60 cells), 67%.
With `C[C@H](Nc1nc2ccc(Oc3ccnc(-c4ccc(N)nc4)c3)cc2s1)C1CCCCC1` [Example 276, (S)-6-(6'-amino-2,3'-bipyridin-4-yloxy)-N-(1-cyclohexylethyl)benzo[d] thiazol-2-amine], the inhibition at 1 µM was found to be 100% in assay [1] (compounds of Table 3); 97% in assay [2] (compounds of Table 3); 39% on kinase domain of cKIT (compounds of Table 3); 26% on kinase domain of PDGFRβ (compounds of Table 3); 100% in assay [3] (compounds of Table 3).
Turning to `CNC(=O)c1cc(Oc2ccc3nc(N[C@H]4CCCC[C@@H]4NS(C)(=O)=O)sc3c2)ccn1` [Example 330, N-mehtyl-4-(2-((1S,2S)-2-(methylsulfonamido)cyclo-hexylamino)benzo[d]thiazol-6-yloxy)picolinamide], the inhibition at 1 µM in assay [1] was found to be 99%; in assay [2] (HEK293H cells), 50%; on kinase domain of cKIT it was 41%; at kinase domain of PDGFRβ, 8%; in assay [3] (MCSF dependent MNFS60 cells), 58%.
As to `CNC(=O)c1cc(Oc2ccc3nc(NC4CCCCC4)sc3c2)ccn1` [Compound 135, 4-(2-Cyclohexylamino-benzothiazol-6-yloxy)-pyridine-2-carboxylic acid methylamide], the inhibition at 1 µM was 100% in assay [1]; 91% in assay [2] (HEK293H cells); 68% at kinase domain of cKIT; 20% at kinase domain of PDGFRβ; 96% in assay [3] (MNFS60 cells).
Regarding `CNC(=O)c1cc(Oc2ccc3nc(NCC4CCCN(S(C)(=O)=O)C4)sc3c2)ccn1` (stereo not shown) [Example 308, N-methyl-4-(2-((1-(methylsulfonyl)piperidin-3-yl)methylamino)benzo[d]thiazol-6-yloxy)picolinamide], the inhibition at 1 µM worked out at 100% in assay [1]; 81% in assay [2] (HEK293H cells); 51% at kinase domain of cKIT; 27% on kinase domain of PDGFRβ; 54% in assay [3] (MCSF dependent MNFS60 cells).
Regarding `CNC(=O)c1cc(Oc2ccc3nc(N[C@H](C)c4ccccc4OC)sc3c2)ccn1` [Compound 129, 4-{2-[(R)-1-(2-Methoxy-phenyl)-ethylamino]-benzothiazol-6-yloxy}-pyridine-2-carboxylic acid methylamide], the inhibition at 1 µM turned out to be 99% in assay [1]; 92% in assay [2] (HEK293H cells); 92% at kinase domain of cKIT; 34% on kinase domain of PDGFRβ; 94% in assay [3] (MNFS60 cells).
Turning to `CNC(=O)c1cc(Oc2ccc3nc(NCCc4ccncc4)sc3c2)ccn1` [Example 316, N-methyl-4-(2-(2-(pyridin-4-yl)ethylamino)benzo[d]thiazol-6-yloxy)picolinamide], the inhibition at 1 µM was 99% in assay [1]; 98% in assay [2] (HEK293H cells); 8% on kinase domain of cKIT; 12% at kinase domain of PDGFRβ; 41% in assay [3] (MCSF dependent MNFS60 cells).
On to `CNC(=O)c1cc(Oc2ccc3nc(Nc4cccc(OC)c4)sc3c2)ccn1` [Compound 32], for which the inhibition at 1 µM in assay [1] (compounds of Table 3) turned out to be 100%; in assay [2] (compounds of Table 3), 93%; at kinase domain of cKIT (compounds of Table 3) it was 45%; at kinase domain of PDGFRβ (compounds of Table 3), 11%; in assay [3] (compounds of Table 3) it was 65%.
As for `c1cc(Oc2ccc3nc(NCC4CCCCC4)sc3c2)cc(-c2ncco2)n1` [Example 342, N-(cyclohexylmethyl)-6-(2-(oxazol-2-yl)pyridin-4-yloxy)benzo[d]thiazol-2-amine], the inhibition at 1 µM worked out at 100% in assay [1]; 87% in assay [2] (HEK293H cells); 84% on kinase domain of cKIT; 61% on kinase domain of PDGFRβ; 75% in assay [3] (MCSF dependent MNFS60 cells).

A word on the inhibition: it is the percentage by which the read-out fell short of the control.

The values above are taken from patent publication US8173689B2 (Novartis AG, priority 2006, dated 2012).
